Experimental findings from patent publication US20090312406A1, “COUMARIN COMPOUNDS AND THEIR USE FOR TREATING VIRAL INFECTION” (priority 2008, published 2009) are described below.

Structures are written as SMILES. Like-named read-outs stand apart in the source and are kept apart here.

This assay concerns Influenza A/WSN/33 (H1N1) virus. The assay is described as follows: In vitro anti-influenza virus assay (neutralization test), cytopathic effect on MDCK cells. Format: cell-based. The note with it: MDCK cells, 72 h, read-out: IC50 (concentration reducing virus-induced cytopathic effect by 50%). How it is done:
Anti-influenza activities of the coumarin compounds were evaluated by measuring the ability of a test compound to inhibit the cytopathic effect induced by an influenza virus on MDCK cells. The 96-well tissue culture plates were seeded with 200 μL of MDCK cells at a concentration of 1.1×10^5 cells/mL in DMEM with 10% fetal bovine serum (FBS). The plates were incubated for 24-30 h at 37° C. and were used at about 90% confluency. Influenza A/WSN/33 (H1N1) virus (100 TCID50) was added to the cells and incubated at 35° C. for 1 h. After adsorption, the infected cell plates were overlaid with 50 μL of DMEM plus 2% FBS and a test compound with different concentrations. The plate was incubated at 35° C. for 72 h. At the end of incubation, the plates were fixed by the addition of 100 μL of 4% formaldehyde for 1 h at room temperature. After the removal of formaldehyde, the plates were stained with 0.1% crystal violet for 15 min at room temperature. The plates were washed and dried, and the density of the well was measured at 570 nm. The concentration required for a test compound to reduce the virus-induced cytopathic effect (CPE) by 50% relative to the virus control was expressed as IC50.
Compounds 1 and 95 were also tested on various influenza virus strains. Amantadine or Relenza was also tested for comparison. IC50 is defined as the concentration required for a test compound to reduce the virus-induced cytopathic effect (CPE) by 50% relative to the virus control.

[1] abbreviates: lower bound (10 nM), upper in μM.

As to `O=C(c1ccccc1)c1oc2ccc3ccc(=O)oc3c2c1-c1ccccc1` [Compound 2], the IC50 (ranges given) lay in the range of 6000 to 25000 nM.

Take `Cc1cc2ccc3oc(C(=O)c4ccccc4)c(-c4ccccc4)c3c2oc1=O` [Compound 3]: the IC50 (ranges given) was 1000 to 5900 nM.

As to `Cc1cc2oc(C(=O)c3ccccc3)c(-c3ccccc3)c2c2oc(=O)ccc12` [Compound 4], where the note is “ranges given”, the IC50 was in the range of 6000 to 25000 nM.

As to `Cc1c(C)c2ccc3oc(C(=O)c4ccccc4)c(-c4ccccc4)c3c2oc1=O` [Compound 6], the IC50 under setting [1] fell in the range of 10 to 999 nM.

In the case of `CCc1cc(=O)oc2c1ccc1oc(C(=O)c3ccccc3)c(-c3ccccc3)c12` [Compound 9], the IC50 under setting [1] was 10 to 999 nM.

For `O=Cc1cc(=O)oc2c1ccc1oc(C(=O)c3ccccc3)c(-c3ccccc3)c12` [Compound 10], the IC50 (ranges given) lay within 1000 to 5900 nM.

Regarding `O=C(c1ccccc1)c1oc2ccc3c(C(F)(F)F)cc(=O)oc3c2c1-c1ccccc1` [Compound 11], the IC50 under setting [1] lay within 10 to 999 nM.

With `CCCc1cc(=O)oc2c1ccc1oc(C(=O)c3ccccc3)c(-c3ccccc3)c12` [Compound 14], the IC50 under setting [1] was 10 to 999 nM.

For the compound `Cc1cc(=O)oc2c1cc(CC1CO1)c1oc(C(=O)c3ccccc3)c(-c3ccccc3)c12` (centres unmarked) [Compound 18], the IC50 (ranges given) fell in the range of 1000 to 5900 nM.

Consider `O=C(c1ccccc1)c1oc2ccc3c4c(c(=O)oc3c2c1-c1ccccc1)CCC4` [Compound 20], for which the IC50 under setting [1] lay in the range of 10 to 999 nM.

In the case of `O=C(c1ccccc1)c1oc2ccc3c4ccccc4c(=O)oc3c2c1-c1ccccc1` [Compound 22], under “ranges given”, the IC50 was 6000 to 25000 nM.

As to `Cc1cc(=O)oc2c1ccc1sc(C(=O)c3ccccc3)c(-c3ccccc3)c12` [Compound 26], the IC50 under setting [1] is 10 to 999 nM.

Turning to `COc1ccccc1C(=O)c1oc2ccc3c(C)cc(=O)oc3c2c1-c1ccccc1` [Compound 30], under setting [1], the IC50 is 10 to 999 nM.

Take `COc1cccc(C(=O)c2oc3ccc4c(C)cc(=O)oc4c3c2-c2ccccc2)c1` [Compound 31]: the IC50 under setting [1] was in the range of 10 to 999 nM.

Take `COc1ccc(C(=O)c2oc3ccc4c(C)cc(=O)oc4c3c2-c2ccccc2)cc1` [Compound 32]: the IC50 (ranges given) was 1000 to 5900 nM.

Regarding `Cc1cc(=O)oc2c1ccc1oc(C(=O)c3ccc(O)cc3)c(-c3ccccc3)c12` [Compound 34], the IC50 (ranges given) lay within 1000 to 5900 nM.

With `Cc1cc(=O)oc2c1ccc1oc(C(=O)c3cccc(C(F)(F)F)c3)c(-c3ccccc3)c12` [Compound 36], under setting [1], the IC50 fell in the range of 10 to 999 nM.

As to `Cc1ccccc1C(=O)c1oc2ccc3c(C)cc(=O)oc3c2c1-c1ccccc1` [Compound 39], the IC50 (ranges given) is 6000 to 25000 nM.

As for `Cc1cccc(C(=O)c2oc3ccc4c(C)cc(=O)oc4c3c2-c2ccccc2)c1` [Compound 40], the IC50 under setting [1] was 10 to 999 nM.

In the case of `Cc1ccc(C(=O)c2oc3ccc4c(C)cc(=O)oc4c3c2-c2ccccc2)cc1` [Compound 41], the IC50 under setting [1] is 10 to 999 nM.

Turning to `Cc1cc(=O)oc2c1ccc1oc(C(=O)c3cccc(C#N)c3)c(-c3ccccc3)c12` [Compound 42], the IC50 (ranges given) was 1000 to 5900 nM.

Take `Cc1cc(=O)oc2c1ccc1oc(C(=O)c3ccccc3F)c(-c3ccccc3)c12` [Compound 44]: the IC50 under setting [1] lay in the range of 10 to 999 nM.

On to `Cc1cc(=O)oc2c1ccc1oc(C(=O)c3ccc(F)cc3)c(-c3ccccc3)c12` [Compound 46], for which the IC50 under setting [1] lay within 10 to 999 nM.

Regarding `Cc1cc(=O)oc2c1ccc1oc(C(=O)c3ccccc3Cl)c(-c3ccccc3)c12` [Compound 47], the IC50 under setting [1] was 10 to 999 nM.

As to `Cc1cc(=O)oc2c1ccc1oc(C(=O)c3cccc(Cl)c3)c(-c3ccccc3)c12` [Compound 48], under setting [1], the IC50 is 10 to 999 nM.

`Cc1cc(=O)oc2c1ccc1oc(C(=O)c3ccc(Cl)cc3)c(-c3ccccc3)c12` [Compound 49]: the IC50 (ranges given) fell in the range of 6000 to 25000 nM.

`Cc1cc(=O)oc2c1ccc1oc(C(=O)c3ccc([N+](=O)[O-])cc3)c(-c3ccccc3)c12` [Compound 51]: the IC50 (ranges given) fell in the range of 6000 to 25000 nM.

`Cc1cc(=O)oc2c1ccc1oc(C(=O)c3ccc4ccccc4c3)c(-c3ccccc3)c12` [Compound 54]: the IC50 under setting [1] was in the range of 10 to 999 nM.

With `COc1ccc(C(=O)c2oc3ccc4c(C)cc(=O)oc4c3c2-c2ccccc2)c(OC)c1` [Compound 56], the IC50 (ranges given) fell in the range of 6000 to 25000 nM.

In the case of `Cc1cc(=O)oc2c1ccc1oc(C(=O)c3ccc(Cl)c(Cl)c3)c(-c3ccccc3)c12` [Compound 58], the IC50 (ranges given) was in the range of 1000 to 5900 nM.

On to `Cc1cc(=O)oc2c1ccc1oc(C(=O)c3ccc(F)cc3F)c(-c3ccccc3)c12` [Compound 59], for which the IC50 under setting [1] lay within 10 to 999 nM.

Regarding `Cc1cc(=O)oc2c1ccc1oc(C(=O)c3ccc(F)c(F)c3)c(-c3ccccc3)c12` [Compound 60], the IC50 under setting [1] was 10 to 999 nM.

Regarding `Cc1cc(=O)oc2c1ccc1oc(C(=O)c3cc(F)ccc3F)c(-c3ccccc3)c12` [Compound 61], the IC50 under setting [1] was in the range of 10 to 999 nM.

Take `Cc1cc(=O)oc2c1ccc1oc(C(=O)c3cccc([N+](=O)[O-])c3)c(-c3ccccc3)c12` [Compound 66]: the IC50 (ranges given) lay in the range of 1000 to 5900 nM.

`Cc1cc(=O)oc2c1ccc1oc(C(=O)c3cccc(N)c3)c(-c3ccccc3)c12` [Compound 67]: the IC50 (ranges given) lay within 1000 to 5900 nM.

For `CCOc1cccc(C(=O)c2oc3ccc4c(C)cc(=O)oc4c3c2-c2ccccc2)c1` [Compound 68], under setting [1], the IC50 was 10 to 999 nM.

Consider `CCCOc1cccc(C(=O)c2oc3ccc4c(C)cc(=O)oc4c3c2-c2ccccc2)c1` [Compound 69], for which the IC50 under setting [1] was 10 to 999 nM.

For `CCCCOc1cccc(C(=O)c2oc3ccc4c(C)cc(=O)oc4c3c2-c2ccccc2)c1` [Compound 70], the IC50 under setting [1] was in the range of 10 to 999 nM.

Turning to `CCCCCOc1cccc(C(=O)c2oc3ccc4c(C)cc(=O)oc4c3c2-c2ccccc2)c1` [Compound 71], the IC50 under setting [1] is 10 to 999 nM.

Regarding `CCCCCCOc1cccc(C(=O)c2oc3ccc4c(C)cc(=O)oc4c3c2-c2ccccc2)c1` [Compound 72], under setting [1], the IC50 fell in the range of 10 to 999 nM.

Consider `Cc1cc(=O)oc2c1ccc1oc(C(=O)c3cccc(OCCCl)c3)c(-c3ccccc3)c12` [Compound 73], for which the IC50 (ranges given) lay within 1000 to 5900 nM.

With `Cc1cc(=O)oc2c1ccc1oc(C(=O)c3cccc(OCCCCl)c3)c(-c3ccccc3)c12` [Compound 74], the IC50 under setting [1] lay within 10 to 999 nM.

For `Cc1cc(=O)oc2c1ccc1oc(C(=O)c3cccc(OCCCCCl)c3)c(-c3ccccc3)c12` [Compound 75], the IC50 under setting [1] fell in the range of 10 to 999 nM.

Consider `C=CCOc1cccc(C(=O)c2oc3ccc4c(C)cc(=O)oc4c3c2-c2ccccc2)c1` [Compound 76], for which, under setting [1], the IC50 was 10 to 999 nM.

`C=CCCOc1cccc(C(=O)c2oc3ccc4c(C)cc(=O)oc4c3c2-c2ccccc2)c1` [Compound 77]: under setting [1], the IC50 was 10 to 999 nM.

Regarding `C=CCCCOc1cccc(C(=O)c2oc3ccc4c(C)cc(=O)oc4c3c2-c2ccccc2)c1` [Compound 78], the IC50 under setting [1] was in the range of 10 to 999 nM.

In the case of `C=CCCCCOc1cccc(C(=O)c2oc3ccc4c(C)cc(=O)oc4c3c2-c2ccccc2)c1` [Compound 79], under setting [1], the IC50 lay within 10 to 999 nM.

On to `Cc1cc(=O)oc2c1ccc1oc(C(=O)c3cccc(OCCN4CCOCC4)c3)c(-c3ccccc3)c12` [Compound 80], for which, for the setting “ranges given”, the IC50 lay in the range of 1000 to 5900 nM.

As for `Cc1cc(=O)oc2c1ccc1oc(C(=O)c3cccc(OCCCN4CCOCC4)c3)c(-c3ccccc3)c12` [Compound 81], the IC50 (ranges given) is 1000 to 5900 nM.

With `Cc1cc(=O)oc2c1ccc1oc(C(=O)c3cccc(OCCCCN4CCOCC4)c3)c(-c3ccccc3)c12` [Compound 82], the IC50 (ranges given) lay within 1000 to 5900 nM.

For `Cc1cc(=O)oc2c1ccc1oc(C(=O)c3cccc(OCCCN4CCCCC4)c3)c(-c3ccccc3)c12` [Compound 84], the IC50 (ranges given) is 6000 to 25000 nM.

Regarding `Cc1cc(=O)oc2c1ccc1oc(C(=O)c3cccc(OCCN(C)C)c3)c(-c3ccccc3)c12` [Compound 86], where the note is “ranges given”, the IC50 lay within 6000 to 25000 nM.

For `Cc1cc(=O)oc2c1ccc1oc(C(=O)c3cccc(OCCCN(C)C)c3)c(-c3ccccc3)c12` [Compound 87], where the note is “ranges given”, the IC50 was in the range of 6000 to 25000 nM.

As for `Cc1cc(=O)oc2c1ccc1oc(C(=O)c3ccco3)c(-c3ccccc3)c12` [Compound 92], the IC50 under setting [1] fell in the range of 10 to 999 nM.

Take `Cc1ccc(C(=O)c2oc3ccc4c(C)cc(=O)oc4c3c2-c2ccccc2)o1` [Compound 94]: the IC50 (ranges given) fell in the range of 6000 to 25000 nM.

Turning to `Cc1cc(=O)oc2c1ccc1oc(C(=O)c3ccsc3)c(-c3ccccc3)c12` [Compound 96], the IC50 under setting [1] lay in the range of 10 to 999 nM.

With `Cc1cc(=O)oc2c1ccc1oc(C(=O)c3cc(Cl)sc3Cl)c(-c3ccccc3)c12` [Compound 97], the IC50 (ranges given) was in the range of 1000 to 5900 nM.

`Cc1cc(=O)oc2c1ccc1oc(C(=O)c3ccc(Br)s3)c(-c3ccccc3)c12` [Compound 98]: the IC50 under setting [1] was in the range of 10 to 999 nM.

Turning to `Cc1ccsc1C(=O)c1oc2ccc3c(C)cc(=O)oc3c2c1-c1ccccc1` [Compound 100], the IC50 under setting [1] lay within 10 to 999 nM.

For the compound `Cc1cc(=O)oc2c1ccc1oc(C(=O)c3nccs3)c(-c3ccccc3)c12` [Compound 107], under setting [1], the IC50 is 10 to 999 nM.

For the compound `Cc1cc(=O)oc2c1ccc1oc(C(=O)c3ccccn3)c(-c3ccccc3)c12` [Compound 115], the IC50 under setting [1] was in the range of 10 to 999 nM.

Take `Cc1cc(=O)oc2c1ccc1oc(C(=O)c3ccccc3)c(-c3ccccc3F)c12` [Compound 132]: the IC50 under setting [1] is 10 to 999 nM.

As to `Cc1cc(=O)oc2c1ccc1oc(C(=O)c3ccccc3)c(-c3cccc(F)c3)c12` [Compound 133], the IC50 (ranges given) is 1000 to 5900 nM.

On to `Cc1cc(=O)oc2c1ccc1oc(C(=O)c3ccccc3)c(-c3ccccc3Cl)c12` [Compound 135], for which the IC50 under setting [1] lay in the range of 10 to 999 nM.

Turning to `Cc1cc(=O)oc2c1ccc1oc(C(=O)c3ccccc3)c(-c3cccc(Cl)c3)c12` [Compound 136], the IC50 (ranges given) was 1000 to 5900 nM.
